Assays:
[1] = test system: HIF1a protein in H9c2 rat cardiomyocytes; assay: Cell-based HIF-alpha stabilization assay (inhibition of PHD in cells); conditions: Rattus norvegicus, H9c2, 24 h, 24 hrs compound incubation, HIF1a protein by ELISA, read-out: Inhibition of PHD in cells (pEC50) (converted)
Experimental: Example B Inhibition of PHD in Cells
PHD Inhibition is Determined Using (Secondary Assay)
Cell-Based HIF-Alpha Stabilization Assay:
H9c2 rat cardiomyocytes (ATCC) were seeded in 96-well tissue culture microplates and cultured for 24 hours prior to addition of compounds (11 point range of serial dilutions) or dimethylsulfoxide vehicle. After 24 hrs of compound incubation, whole cell extracts were prepared by lysing cells in cell extraction buffer containing protease and phosphatase inhibitors (Meso-Scale Discovery). HIF1a protein content was assessed by ELISA (Meso-Scale Discovery) and expressed as a % relative to the maximum response obtained from the positive control, desferrioxamine (Sigma-Aldrich). Compound EC50s were obtained by curve-fitting using XLfit4 MicroSoft Excel curve-fitting software. Compound EC50pos were obtained using XLfit4 to calculate the compound concentration that results in 50% of the desferrioxamine maximum response.

[2] = target: PHD2 enzyme (residues 181-417) (Homo sapiens (Human), UniProt Q9GZT9); assay: Inhibition of PHD enzyme (LC/MS peptide hydroxylation assay); assay type: biochemical; conditions: PHD2 (residues 181-417) 5 nM, 60 min pre-incubation; -log(IC50), IC50 molar
Experimental: Example A Inhibition of PHD Enzyme
The IC50 values for the PHD2 enzyme (residues 181-417) were determined by mixing increasing amounts of inhibitor with a fixed amount of enzyme (5 nM, final concentration) and Biotin labeled peptide (Biotin-Asp-Leu-Glu-Met-Leu-Ala-Pro-Tyr-Ile-Pro-Met-Asp-Asp-Asp-Phe-Gln-Leu, 1 uM final concentration) and 2-Oxyglutarate (2 uM final concentration) in 50 mM HEPES, 50 mM KCl, 0.5 mM TCEP, 2 uM FeCl2, 0.1 mg/ml BSA, at pH 7.3. The reaction was conducted by pre-incubating the enzyme in the presence of inhibitor for 60 min at room temperature. The activity of the free enzyme was measured by adding the peptide, the 2-Oxoglutarate (see above for final concentrations), and Ascorbic Acid (1 mM final concentration). The enzymatic activity was quenched after 60 min by adding an excess of a tight binding inhibitor to the assay mixture. The amount of product released was measured by using a LC/MS system (Agilent HPLC with Applied Biosystems API3000 Mass Spectrometer). Data were analyzed using the classical isotherm equation for the determination of IC50 values and are pIC50, i.e., −log(IC50), where IC50 is molar concentration and are reported as pIC50, i.e., −log(IC50), where IC50 is molar concentration.

PHD2 enzyme (residues 181-417), sequence (Q9GZT9 181-417): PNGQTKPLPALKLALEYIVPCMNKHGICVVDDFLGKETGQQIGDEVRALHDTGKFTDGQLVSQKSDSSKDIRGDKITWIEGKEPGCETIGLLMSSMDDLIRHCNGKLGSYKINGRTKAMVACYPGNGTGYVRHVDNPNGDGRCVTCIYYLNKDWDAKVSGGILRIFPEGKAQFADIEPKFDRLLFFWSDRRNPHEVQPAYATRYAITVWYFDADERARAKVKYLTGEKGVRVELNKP

Row | PHD Inhibition (pIC50) [2] | Structure (SMILES) | EC50 [1] [µM]
1 | 7.12 | COCCCN(C)C(=O)c1ccc(-n2ncc(-c3ccc(C#N)cc3)c2O)nc1 [Example 234, 6-(4-(4-cyanophenyl)-5-hydroxy-1H-pyrazol-1-yl)-N-(3-methoxypropyl)-N-methylnicotinamide] | 2.24
2 | 8.50 | Cc1c(-c2cnn(-c3ccc(C(=O)N4CCN5CCC[C@@H]5C4)cn3)c2O)ccc(C#N)c1F [Example 334, (R)-2-fluoro-4-(5-hydroxy-1-(5-(octahydropyrrolo[1,2-a]pyrazine-2-carbonyl)pyridin-2-yl)-1H-pyrazol-4-yl)-3-methylbenzonitrile] | 1.38
3 | 8.39 | Cc1c(-c2cnn(-c3ccc(C(=O)N4CCN(C)[C@H](C)C4)cn3)c2O)ccc(C#N)c1F [Example 340, (R)-4-(1-(5-(3,4-dimethylpiperazine-1-carbonyl)pyridin-2-yl)-5-hydroxy-1H-pyrazol-4-yl)-2-fluoro-3-methylbenzonitrile] | 0.759
4 | 7.88 | Cc1cc(C#N)ccc1-c1cnn(-c2ccc(C(=O)N3CCN4CCC3CC4)cn2)c1O [Example 428, (S)-4-(1-(5-(1,4-diazabicyclo[3.2.2]nonane-4-carbonyl)pyridin-2-yl)-5-hydroxy-1H-pyrazol-4-yl)-3-methylbenzonitrile] | 0.501
5 | 7.88 | Cc1cc(C#N)c(F)cc1-c1cnn(-c2ccc(C(=O)N3CC(N(C)C)C3)cn2)c1O [Example 394, 4-(1-(5-(3-(dimethylamino)azetidine-1-carbonyl)pyridin-2-yl)-5-hydroxy-1H-pyrazol-4-yl)-2-fluoro-5-methylbenzonitrile] | 2.82
6 | 7.60 | Cc1c(-c2cnn(-c3ccc(C(=O)N4CC5(CN(C)C5)C4)cn3)c2O)ccc(C#N)c1F [Example 342, 2-fluoro-4-(5-hydroxy-1-(5-(6-methyl-2,6-diazaspiro[3.3]heptane-2-carbonyl)pyridin-2-yl)-1H-pyrazol-4-yl)-3-methylbenzonitrile] | 0.427
7 | 7.56 | O=C(NCc1ccccc1)c1ccc(-n2ncc(-c3ccncc3)c2O)nc1 [Example 225, N-benzyl-6-(5-hydroxy-4-(pyridin-4-yl)-1H-pyrazol-1-yl)nicotinamide] | 2.34
8 | 8.50 | Cc1cc(C#N)ccc1-c1cnn(-c2ccc(C(=O)N3CCN(CC(F)(F)F)CC3)cn2)c1O [Example 312, 4-(5-hydroxy-1-(5-(4-(2,2,2-trifluoroethyl)piperazine-1-carbonyl)pyridin-2-yl)-1H-pyrazol-4-yl)-3-methylbenzonitrile] | 1.82
9 | 8.2 | Cc1cc(C#N)ccc1-c1cnn(-c2ccc(C(=O)NCCC3CCCCO3)cn2)c1O (stereo not shown) [Example 206, 6-(4-(4-cyano-2-methylphenyl)-5-hydroxy-1H-pyrazol-1-yl)-N-(2-(tetrahydro-2H-pyran-2-yl)ethyl)nicotinamide] | 0.11
10 | 8.17 | Cc1c(-c2cnn(-c3ccc(C(=O)N4CCC[C@H](N(C)C)C4)cn3)c2O)ccc(C#N)c1F [Example 320, (S)-4-(1-(5-(3-(dimethylamino)piperidine-1-carbonyl)pyridin-2-yl)-5-hydroxy-1H-pyrazol-4-yl)-2-fluoro-3-methylbenzonitrile] | 0.741
11 | 7.11 | N#Cc1ccc(-c2cnn(-c3ccc(C(=O)NCC4CCOCC4)cn3)c2O)c(F)c1 [Example 221, 6-(4-(4-cyano-2-fluorophenyl)-5-hydroxy-1H-pyrazol-1-yl)-N-((tetrahydro-2H-pyran-4-yl)methyl)nicotinamide] | 0.933
12 | 7.76 | Cc1cc(C#N)ccc1-c1cnn(-c2ccc(C(=O)N(C)CC3CCCN(C)C3)cn2)c1O (stereo not shown) [Example 361, 6-(4-(4-cyano-2-methylphenyl)-5-hydroxy-1H-pyrazol-1-yl)-N-methyl-N-((1-methylpiperidin-3-yl)methyl)nicotinamide] | 0.457
13 | 7.29 | COCC1(NC(=O)c2ccc(-n3ncc(-c4ccc(C#N)cc4)c3O)nc2)CC1 [Example 201, 6-(4-(4-cyanophenyl)-5-hydroxy-1H-pyrazol-1-yl)-N-(1-(methoxymethyl)cyclopropyl)nicotinamide] | 0.776
14 | 8.18 | Cc1cc(C#N)ccc1-c1cnn(-c2ccc(C(=O)N3CC(N(C)C4CC4)C3)cn2)c1O [Example 298, 4-(1-(5-(3-(cyclopropyl(methyl)amino)azetidine-1-carbonyl)pyridin-2-yl)-5-hydroxy-1H-pyrazol-4-yl)-3-methylbenzonitrile] | 0.977
15 | 7.51 | N#Cc1ccc(-c2cnn(-c3ccc(C(=O)NCCC4CCCO4)cn3)c2O)cc1 (stereo not shown) [Example 241, 6-(4-(4-cyanophenyl)-5-hydroxy-1H-pyrazol-1-yl)-N-(2-(tetrahydrofuran-2-yl)ethyl)nicotinamide] | 0.437
16 | 6.89 | Cc1cc(-n2ncc(-c3ccc(C#N)cc3)c2O)ncc1C(=O)N[C@H]1CCOC1 [Example 277, (S)-6-(4-(4-cyanophenyl)-5-hydroxy-1H-pyrazol-1-yl)-4-methyl-N-(tetrahydrofuran-3-yl)nicotinamide] | 7.08

Continued, compound first:

Row | Structure (SMILES) | PHD Inhibition (pIC50) [2] | EC50 [1] [µM]
17 | N#Cc1ccc(-c2cnn(-c3ccc(C(=O)NC4CCCOC4)cn3)c2O)cc1 (stereo not shown) [Example 155, 6-(4-(4-cyanophenyl)-5-hydroxy-1H-pyrazol-1-yl)-N-(tetrahydro-2H-pyran-3-yl)nicotinamide] | 7.62 | 1.55
18 | O=C(NCC1CCOCC1)c1ccc(-n2ncc(-n3ccccc3=O)c2O)nc1 [Example 192, 6-(5-hydroxy-4-(2-oxopyridin-1(2H)-yl)-1H-pyrazol-1-yl)-N-((tetrahydro-2H-pyran-4-yl)methyl)nicotinamide] | 6.84 | 50.1
19 | N#Cc1ccc(-c2cnn(-c3ccc(C(=O)NCC(F)(F)F)cn3)c2O)cc1 [Example 77, 6-(4-(4-cyanophenyl)-5-hydroxy-1H-pyrazol-1-yl)-N-(2,2,2-trifluoroethyl)nicotinamide] | 7.03 | 1.26
20 | Cc1cc(C#N)ccc1-c1cnn(-c2ccc(C(=O)N[C@H]3CCOC3)cn2)c1O [Example 120, (S)-6-(4-(4-cyano-2-methylphenyl)-5-hydroxy-1H-pyrazol-1-yl)-N-(tetrahydrofuran-3-yl)nicotinamide] | 7.2 | 0.102
21 | CCOCCCNC(=O)c1ccc(-n2ncc(-c3ccc(C#N)cc3)c2O)nc1 [Example 162, 6-(4-(4-cyanophenyl)-5-hydroxy-1H-pyrazol-1-yl)-N-(3-ethoxypropyl)nicotinamide] | 7.23 | 1.15
22 | CC(C)OCCCNC(=O)c1ccc(-n2ncc(-c3ccc(C#N)cc3)c2O)nc1 [Example 163, 6-(4-(4-cyanophenyl)-5-hydroxy-1H-pyrazol-1-yl)-N-(3-isopropoxypropyl)nicotinamide] | 7.28 | 1.48
23 | COCC(C)CNC(=O)c1ccc(-n2ncc(-c3ccc(C#N)cc3)c2O)nc1 (stereo not shown) [Example 146, 6-(4-(4-cyanophenyl)-5-hydroxy-1H-pyrazol-1-yl)-N-(3-methoxy-2-methylpropyl)nicotinamide] | 8.3 | 0.692
24 | Cc1cc(C#N)ccc1-c1cnn(-c2ccc(C(=O)NCCCOCC3CC3)cn2)c1O [Example 70, 6-(4-(4-cyano-2-methylphenyl)-5-hydroxy-1H-pyrazol-1-yl)-N-(3-(cyclopropylmethoxy)propyl)nicotinamide] | 7.17 | 0.229
25 | N#Cc1ccc(-c2cnn(-c3ccc(C(=O)NCCCN4CCOCC4)cn3)c2O)cc1 [Example 91, 6-(4-(4-cyanophenyl)-5-hydroxy-1H-pyrazol-1-yl)-N-(3-morpholinopropyl)nicotinamide] | 7.18 | 0.933
26 | COCC1(NC(=O)c2ccc(-n3ncc(-c4ccc(C#N)cc4C)c3O)nc2)CC1 [Example 118A, 6-(4-(4-cyano-2-methylphenyl)-5-hydroxy-1H-pyrazol-1-yl)-N-(1-(methoxymethyl)cyclopropyl)nicotinamide] | – | 0.0794
27 | COc1ccc2c(c1)C(NC(=O)c1ccc(-n3ncc(-c4ccc(C#N)cc4)c3O)nc1)CC2 (stereo not shown) [Example 83, 6-(4-(4-cyanophenyl)-5-hydroxy-1H-pyrazol-1-yl)-N-(6-methoxy-2,3-dihydro-1H-inden-1-yl)nicotinamide] | – | 1.78

From patent US10407409B2, “6-(5-hydroxy-1H-pyrazol-1-yl)nicotinamide inhibitors of PHD” (Takeda Pharmaceutical Company Limited, priority 2013, dated 2019)
